Results on six compounds are retold here after the supplement of paper PMC11061612.

Test in all cases: Bliss excess, mean over the matrix (fraction); higher = more synergy
In assay [1] the test system is SW780 (Bladder Carcinoma). In short, it runs like this: (§1)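 Cell lines in DMEM/F12 or RPMI with 10% FBS were plated in 1536-well plates, held 24 hours at 37°C, 5% CO2, then given two-drug dose matrices for 72 hours (DMSO typically 0.2%). Viability was read by CellTiter-Glo 2.0 luminescence and scaled as inhibition from 0 (vehicle wells) to 1 (blank wells). Combination Emax is the second-highest inhibition in the matrix; Bliss excess is observed combination effect minus expected EA + EB − EA·EB, EA and EB being single-agent effects.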

The subject of assay [2] is HCC2157 (Breast Carcinoma). Summed up:
as §1

Assay [3] concerns MDA-MB-231 (Breast Carcinoma). Summed up:
as §1

Assay [4] concerns LS-513 (Colorectal Carcinoma). In short, it runs like this:
as §1

For assay [5], the system named is NCI-H1694 (Small Cell Lung Carcinoma). Summed up:
as §1

Assay [6] has as its system SW1783 (Low Grade Glioma). In short, it runs like this:
as §1

Assay [7] concerns COR-L95 (Small Cell Lung Carcinoma). In short, it runs like this:
as §1

Assay [8] concerns SW1088 (Low Grade Glioma). In short, it runs like this: as §1
For assay [9], the system named is NCI-H1793 (Lung Adenocarcinoma). Summed up:
as §1

For assay [10], the system named is EM-2 (Chronic Myelogenous Leukemia). In short, it runs like this:
as §1

Assay [11] deals with IGR-1 (Melanoma). Summed up:
as §1

The test system of assay [12] is HT-29 (Colorectal Carcinoma). In short, it runs like this: as §1
For assay [13], the system named is NALM-6 (B-Lymphoblastic Leukemia). In short, it runs like this:
as §1

Assay [14] concerns NCI-H1781 (Lung Adenocarcinoma). Summed up: as §1
For assay [15], the system named is HPAC (Pancreatic Carcinoma). In short, it runs like this: as §1
Assay [16] concerns DB (B-Cell Non-Hodgkin's Lymphoma). Summed up:
as §1

Assay [17] relates to COR-L23 (Non-Small Cell Lung Carcinoma). In short, it runs like this: as §1
The test system of assay [18] is LU-99A (Non-Small Cell Lung Carcinoma). Summed up: as §1
In assay [19] the test system is DOV13 (Ovarian Carcinoma). Summed up: as §1
Assay [20] has as its system SW1990 (Pancreatic Carcinoma). Summed up: as §1

Consider `CC(=O)c1c(C)c2cnc(Nc3ccc(N4CCNCC4)cn3)nc2n(C2CCCC2)c1=O` [Palbociclib] + CC1(C)CCC(CN2CCN(c3ccc(C(=O)NS(=O)(=O)c4ccc(NCC5CCOCC5)c([N+](=O)[O-])c4)c(Oc4cnc5[nH]ccc5c4)c3)CC2)=C(c2ccc(Cl)cc2)C1 [Venetoclax] (first compound max 10 µM, 7x7, partner max 1 µM), for which the Bliss excess in [1] was -0.0395; in [2], 0.0389; in assay [3] it was -0.0242; in assay [4] it was 0.0202; in assay [5], 0; in assay [6], -0.0484. The Bliss excess in assay [7] was -0.0581; in [8] it was -0.018; in assay [9], -0.0136; in assay [10] it was 0.0262; in assay [11] it was -0.0267; in assay [12], -0.0139. Moreover, the Bliss excess in assay [13] was 0.0132; in assay [14] it was -0.045; in [15], -0.0619; in assay [16], 0.0187; in assay [17], -0.0429; in assay [18], 0.048. The values for the Bliss excess in assay [19] and in assay [20] were 0.0125 and -0.0239, respectively.
With `Cc1cc2ncnn2cc1Nc1ncc2c(n1)n(C1CCOCC1)c(=O)n2C` [AZD7648] + O=C(c1cc(Cc2n[nH]c(=O)c3ccccc23)ccc1F)N1CCN(C(=O)C2CC2)CC1 [Olaparib] (first compound max 10 µM, 7x7, partner max 10 µM), the Bliss excess is -0.0289 in assay [1]; 0.0073 in [2]; -0.0752 in assay [3]; -0.0387 in assay [4]; -0.0004 in assay [5]; -0.042 in assay [6]. Moreover, the Bliss excess in assay [7] was -0.0158; in [8] it was -0.067; in assay [9] it was -0.0616; in assay [10] it was 0.0036; in [11], -0.0032; in [12], -0.0265. Besides, the Bliss excess in [13] was -0.027; in assay [14], -0.0204; in assay [15], -0.0261; in assay [16], -0.0564; in assay [17], 0.0328; in [18], -0.0556. Also, the figures for the Bliss excess in [19] and in [20] were -0.0556 and -0.054, respectively.
For the compound `CS(=O)(=O)CCNCc1ccc(-c2ccc3ncnc(Nc4ccc(OCc5cccc(F)c5)c(Cl)c4)c3c2)o1` [Lapatinib] + C[C@@H](Oc1cc(-c2cnn(C3CCNCC3)c2)cnc1N)c1c(Cl)ccc(F)c1Cl [Crizotinib] (first compound max 10 µM, 7x7, partner max 10 µM), the Bliss excess in assay [1] is -0.0364; in assay [2], -0.0482; in assay [3], -0.042; in assay [4], -0.023; in assay [5] it was 0.025; in assay [6], -0.0306. The Bliss excess is -0.0529 in assay [7]; -0.0612 in assay [8]; -0.0351 in assay [9]; -0.0062 in assay [10]; -0.0282 in assay [11]; -0.0475 in assay [12]. For the same compound, the Bliss excess in assay [13] was -0.0612; in assay [14], -0.0715; in assay [15], 0.0358; in assay [16], -0.148; in assay [17], -0.0296; in assay [18], -0.0205. Moreover, the Bliss excess in assay [19] was -0.0621; in assay [20], -0.0042.
As to `COc1cccc(OCCCN)c1-c1cc(Nc2cnc(C#N)cn2)n[nH]1` [Prexasertib] + CCc1c2c(nc3ccc(O)cc13)-c1cc3c(c(=O)n1C2)COC(=O)[C@]3(O)CC [SN-38] (first compound max 1 µM, 7x7, partner max 0.3 µM), the Bliss excess in assay [1] was -0.0348; in assay [2], 0.0649; in [3] it was 0.0723; in [4] it was -0.0691; in assay [5], 0.0037; in [6], -0.0739. Besides, the Bliss excess in assay [7] is -0.121; in [8] it was 0.0128; in assay [9], -0.0209; in assay [10] it was -0.0352; in assay [11], 0.0316; in assay [12], -0.0022. The Bliss excess was -0.0555 in assay [13]; -0.0105 in [14]; 0.0446 in assay [15]; -0.0299 in [16]; 0.0388 in assay [17]; -0.0593 in assay [18]. Also, the values for the Bliss excess in assay [19] and in assay [20] were -0.0444 and -0.0551, respectively.
In the case of `CCc1c2c(nc3ccc(O)cc13)-c1cc3c(c(=O)n1C2)COC(=O)[C@]3(O)CC` [SN-38] + CN(C)CCCOc1ccc(-c2ccc3ncc4c(c3c2)n(C2CCOCC2)c(=O)n4C)cn1 [AZD0156] (first compound max 0.3 µM, 7x7, partner max 1 µM), the Bliss excess in [1] is -0.0475; in [2], 0.142; in [3] it was 0.0937; in assay [4], -0.0878; in assay [5], -0.0333; in assay [6] it was -0.039. The Bliss excess in assay [7] was -0.0989; in assay [8], 0.0324; in [9] it was -0.026; in [10] it was 0.0812; in assay [11] it was 0.0179; in [12] it was 0.0693. Besides, the Bliss excess in assay [13] is 0.0336; in [14], 0.0554; in assay [15] it was 0.0584; in assay [16] it was -0.0305; in assay [17], 0.014; in assay [18], 0.0406. Besides, the Bliss excess in assay [19] is -0.0192; in assay [20], -0.0091.
Regarding `CC1(C)CCC(CN2CCN(c3ccc(C(=O)NS(=O)(=O)c4ccc(NCC5CCOCC5)c([N+](=O)[O-])c4)c(Oc4cnc5[nH]ccc5c4)c3)CC2)=C(c2ccc(Cl)cc2)C1` [Venetoclax] + C=CCn1c(=O)c2cnc(Nc3ccc(N4CCN(C)CC4)cc3)nc2n1-c1cccc(C(C)(C)O)n1 [AZD1775] (first compound max 1 µM, partner max 1 µM), the Bliss excess in assay [1] was -0.0244; in assay [2] it was -0.0554; in assay [3], -0.0666; in assay [4] it was -0.0581; in assay [5], 0.0226; in [6], -0.0007. Further, the Bliss excess in assay [7] was 0.001; in assay [8] it was -0.003; in [9], -0.0007; in assay [10] it was -0.0094; in [11] it was 0.0147; in assay [12], 0.008. Further, the Bliss excess in assay [13] is 0.119; in assay [14], -0.0767; in assay [15] it was -0.0565; in [16], 0.0119; in assay [17], -0.0609; in [18], -0.0533. The Bliss excess in assay [19] stood at 0.131; in assay [20], 0.0206.
